Reference: patent US20040121474A1, “Detection and evaluation of chemically-mediated and ligand-mediated t-cell activation using optophoretic analysis” (Genoptix, Inc, priority 2002, published 2004)

How the values were obtained:
Type in all cases: cell-based
U937 cells [1] = test: Escape velocity of PMA-treated U937 cells, time course
Method: PMA was dissolved in ethanol at a concentration of 5 mg/mL. 3 mls of U937 cells grown in RPMI 1640 media with supplements were removed from the culture flask and 1 ml was placed into each of three eppendorf tubes. Cells from the first tube were pelleted for 4 minutes at 10,000 rpm and resuspended in 250 uL PBS/1% BSA buffer for escape velocity measurements. […] These tubes were vortexed and placed in a 37° C. water bath for either one hour or six hours. At the end of the time point, the tube was removed, cells were pelleted and then resuspended as described above and escape velocity measurements taken.
The preferred method of performing cellular interrogation is through optical interrogation which includes determining the optophoretic properties of the cell(s). The optophoretic properties of the cell(s) can be determined in any number of ways. In one preferred embodiment, the escape velocity of cell(s) is used to determine the optophoretic properties. The escape velocity (measured typically in μm/sec) is defined as the minimum speed at which an interrogated cell no longer tracks the moving optical gradient.
The objective of this experiment is to compare the escape velocities of U937 cells that have been treated with the phorbol ester, phorbol 12 myristate 13-acetate (PMA), to the escape velocity of untreated U937 cells. PMA activates the Protein Kinase C pathway and may cause the cells to go into rapid cell differentiation, which may be indicated by a shift in escape velocity. The effect of PMA activation was tested at three timepoints: no activation, 1 hour of activation, and 6 hours of activation. At the end of the activation period, the cells were centrifuged for 4 minutes at 10,000 rpm. […] The cells were then centrifuged again and resuspended in buffer. The escape velocity and the cell size of cells from each tube were then calculated.

[2] = system: CD11b expression in HL-60 cells; test: FACS CD11b expression profile; settings: 400 ng/ml PMA
Method: Fast scan analysis was also performed on HL-60 cells that were treated with PMA and DMSO. A time course evaluation of PMA treated HL-60 cells was performed with fast scan data taken at 16 hours, 24 hours, 40 hours, and 72 hours post-treatment with 400 ng/ml PMA. A control sample of HL-60 cells was also tested using EtOH as the vehicle for purposes of comparing the differentiated cells with the undifferentiated HL-60 cells. The PMA-treated and control cells were harvested and trypsinized. The samples were then resuspended in PBS/1% BSA. A set of samples was also obtained and left as pellets at 4° C. for subsequent FACS analysis.
FIG. 145 illustrates a histogram of the travel distance of the control cells as well as the PMA-treated cells at 16 hours, 24 hours, 40 hours, and 72 hours post-treatment. FIG. 146 illustrates the mean travel distances of the control cells as well as the PMA-treated cells at 16 hours, 24 hours, 40 hours, and 72 hours post-treatment. FIG. 147 illustrates the FACS CD11b expression profile in PMA-treated HL-60 cells as well as the control. CD11b is a known marker of cellular differentiation and is expressed on the surface of differentiating cells. […] The data illustrate that Optophoretic analysis can be used as an assay for the detection and quantification of cellular differentiation. […]

U937 cells [3] = test: Escape velocity, time and concentration dependence of PMA; design: Escape velocity Ave.: unit not given here
Method: This experiment was conducted to test the effect of PMA concentration on the escape velocity of U937 cells. PMA concentrations of 10 ng/ml, 1 ng/ml, 100 pg/ml, 10 pg/ml and 1 pg/ml were tested. The control sample received EtOH and not PMA.
The PMA concentration was tested at three timepoints: 1 hour, 3 hours and 5 hours. At each timepoint, 300 μl of cells were removed from each flask. The cells were then spun for 5 minutes at 5000 rpm. The cells were then resuspended in […] PBS/1% BSA and […] of trypan blue.

`CCCCCCCCCCCCCC(=O)O[C@@H]1[C@@H](C)[C@@]2(O)[C@@H](C=C(CO)C[C@]3(O)C(=O)C(C)=C[C@@H]23)[C@@H]2C(C)(C)[C@]12OC(C)=O` [PMA, phorbol 12 myristate 13-acetate] was tested, and the “distribution of escape velocities (FIG. 31)” value (U937 cells [1]; 0.01 μg/ml PMA, 6 and 9 hours post treatment) was “clear trend toward higher escape velocities over time”, the “escape velocity as compared to the untreated cells” value (U937 cells [1]; 5 ug/mL PMA, 6 hours) was “significantly higher escape velocity” and the “Escape velocity Average” value (U937 cells [1]; 1 hour of PMA activation) was 15.3 μm/sec. For the same compound, the “Escape velocity Average” value (U937 cells [1]; 6 hours of PMA activation) was 28.0 μm/sec, the “time after treatment at which a noticeable change in CD11b expression levels was observed” value [2] was “about 40 hours” and the “Escape velocity Ave.” value (U937 cells [3]; 10 pg/ml PMA, 1 Hour Activation) was 14.4. The “Escape velocity Ave.” value (U937 cells [3]; 10 pg/ml PMA, 3 Hour Activation) was 14.5, the “Escape velocity Ave.” value (U937 cells [3]; 10 pg/ml PMA, 5 Hour Activation) was 14.1 and the “Escape velocity Ave.” value (U937 cells [3]; 100 pg/ml PMA, 1 Hour Activation) was 14.4. For the same compound, the “Escape velocity Ave.” value (U937 cells [3]; 100 pg/ml PMA, 3 Hour Activation) was 15.5, the “Escape velocity Ave.” value (U937 cells [3]; 100 pg/ml PMA, 5 Hour Activation) was 16.1 and the “Escape velocity Ave.” value (U937 cells [3]; 1 ng/ml PMA, 1 Hour Activation) was 14.3. The “Escape velocity Ave.” value (U937 cells [3]; 1 ng/ml PMA, 3 Hour Activation) was 15.1, the “Escape velocity Ave.” value (U937 cells [3]; 1 ng/ml PMA, 5 Hour Activation) was 16.5 and the “Escape velocity Ave.” value (U937 cells [3]; 10 ng/ml PMA, 1 Hour Activation) was 14.8. The “Escape velocity Ave.” value (U937 cells [3]; 10 ng/ml PMA, 3 Hour Activation) was 15.2, the “Escape velocity Ave.” value (U937 cells [3]; 10 ng/ml PMA, 5 Hour Activation) was 16.2 and the “Optophoretic difference (escape velocity)” value (U937 cells [3]; two lowest concentrations, 10 pg/ml and 1 pg/ml) was “no Optophoretic difference”.
